For 1 compound, IC50 results are on record in US6545037B2, “Benzenesulfonamide compounds” (Les Laboratoires Servier, priority 2000, dated 2003).

The subject of test [1] is Platelet-rich plasma (PRP). Nature of the test: Platelet aggregation in man induced by the TXA2 agonist U46619. In kind it is cell-based. The conditions noted are these: human PRP, U46619 1 μM. As for the experimental part:
(§1) Platelet aggregation in man
(§2) Venous blood is obtained from human volunteers who have not taken aspirin for at least 14 days prior to the experiment. The blood is removed over sodium citrate (0.109 M) (1 vol. of citrate over 9 vol. of blood). Platelet-rich plasma (PRP) is obtained by centrifugation (20° C.) at 200 g for 10 minutes. The number of platelets is on average 250000 PL/mm^3. The PRP is stored at room temperature until the test and is used within 2 hours of having been taken. The TXA2 agonist U46619 is used at a concentration of 1 μM and 5-hydroxytryptamine is used at a concentration of 10 μM, the latter in the presence of 0.3 μM adenosine diphosphate and 1 μM adrenalin.
(§3) The values indicate that the compounds of the invention are powerful platelet anti-aggregants, which act in a balanced manner on the two activation routes, that of TXA2 and that of serotonin.

Test [2] relates to Platelet-rich plasma (PRP). Nature of the test: Platelet aggregation in man induced by 5-hydroxytryptamine. It counts as cell-based. The conditions noted are these: human PRP, 5-hydroxytryptamine 10 μM in the presence of 0.3 μM adenosine diphosphate and 1 μM adrenalin, read-out: IC50, platelet aggregation produced by 5-hydroxytryptamine. As for the experimental part:
as §1, §2, §3

Broadly, the IC50 is the midpoint of a concentration-inhibition curve.

With `O=C(O)CCc1cc(CCN2CCC(c3nsc4cc(F)ccc34)CC2)cc2c1CCC(NS(=O)(=O)c1ccc(Cl)cc1)C2` (centres unmarked) [Example 4, 3-(6-{[(4-Chlorophenyl)sulphonyl]amino}-3-{2-[4-(6-fluoro-1,2-benzisothiazol-3-yl)-1-piperidinyl]ethyl}-5,6,7,8-tetrahydro-1-naphthyl)propanoic acid], the 50% inhibitory concentration (IC50) was determined as 170 nM in test [1] and 230 nM in test [2].
